Experimental data reported in ChEMBL document CHEMBL1151251, “Monanchorin, a bicyclic alkaloid from the sponge Monanchora ungiculata” (J Nat Prod, 2004).
Converted amounts (≈) assume the structure as drawn.

Assay: Cytotoxicity against mouse IC2 cells
Assay type: functional, cell-based

| SMILES | IC50 [µg/mL] |
| --- | --- |
| CC[C@@H]1C=CCC[C@]2(C[C@H]3CC[C@H]4[C@@H](C(=O)O)[C@@]5(CCC[C@H](C)O5)N=C(N2)N34)O1 [CRAMBESIDIN ACID] | 25 (≈ 62 µM) |
| CCCCC[C@@H]1O[C@@H]2CC[C@@H]1NC(=N)N2 [MONANCHORIC ACID] | 11.3 (≈ 53.5 µM) |
